Experiment [1] relates to HEK293 FOP control reporter cell line. The experiment can be described thus: HEK293 FOP Assay (FOP control vector luciferase reporter). The experiment is classed as cell-based. As to conditions: Homo sapiens. The essentials: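 Stable HEK293 line carrying the FOP vector (randomized, non-functional TCF sites; Geneticin-selected) was run in parallel with the TOP line. Cells were plated 24 h ahead at 10000/well and given recombinant human Wnt-3a at 2500–5 ng/ml. Compounds were tested at 50 μM–15 nM (3.16-fold steps) in CAFTY buffer, pH 7.4, with 2 mM Ca2+ and 0.01% BSA.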
(In general: Reporter assays use an easily measured gene product as a stand-in for the process of interest.)

A further experiment has as its target T1, TNKS1 (Homo sapiens, UniProt O95271).
T1 sequence (O95271 1-1327): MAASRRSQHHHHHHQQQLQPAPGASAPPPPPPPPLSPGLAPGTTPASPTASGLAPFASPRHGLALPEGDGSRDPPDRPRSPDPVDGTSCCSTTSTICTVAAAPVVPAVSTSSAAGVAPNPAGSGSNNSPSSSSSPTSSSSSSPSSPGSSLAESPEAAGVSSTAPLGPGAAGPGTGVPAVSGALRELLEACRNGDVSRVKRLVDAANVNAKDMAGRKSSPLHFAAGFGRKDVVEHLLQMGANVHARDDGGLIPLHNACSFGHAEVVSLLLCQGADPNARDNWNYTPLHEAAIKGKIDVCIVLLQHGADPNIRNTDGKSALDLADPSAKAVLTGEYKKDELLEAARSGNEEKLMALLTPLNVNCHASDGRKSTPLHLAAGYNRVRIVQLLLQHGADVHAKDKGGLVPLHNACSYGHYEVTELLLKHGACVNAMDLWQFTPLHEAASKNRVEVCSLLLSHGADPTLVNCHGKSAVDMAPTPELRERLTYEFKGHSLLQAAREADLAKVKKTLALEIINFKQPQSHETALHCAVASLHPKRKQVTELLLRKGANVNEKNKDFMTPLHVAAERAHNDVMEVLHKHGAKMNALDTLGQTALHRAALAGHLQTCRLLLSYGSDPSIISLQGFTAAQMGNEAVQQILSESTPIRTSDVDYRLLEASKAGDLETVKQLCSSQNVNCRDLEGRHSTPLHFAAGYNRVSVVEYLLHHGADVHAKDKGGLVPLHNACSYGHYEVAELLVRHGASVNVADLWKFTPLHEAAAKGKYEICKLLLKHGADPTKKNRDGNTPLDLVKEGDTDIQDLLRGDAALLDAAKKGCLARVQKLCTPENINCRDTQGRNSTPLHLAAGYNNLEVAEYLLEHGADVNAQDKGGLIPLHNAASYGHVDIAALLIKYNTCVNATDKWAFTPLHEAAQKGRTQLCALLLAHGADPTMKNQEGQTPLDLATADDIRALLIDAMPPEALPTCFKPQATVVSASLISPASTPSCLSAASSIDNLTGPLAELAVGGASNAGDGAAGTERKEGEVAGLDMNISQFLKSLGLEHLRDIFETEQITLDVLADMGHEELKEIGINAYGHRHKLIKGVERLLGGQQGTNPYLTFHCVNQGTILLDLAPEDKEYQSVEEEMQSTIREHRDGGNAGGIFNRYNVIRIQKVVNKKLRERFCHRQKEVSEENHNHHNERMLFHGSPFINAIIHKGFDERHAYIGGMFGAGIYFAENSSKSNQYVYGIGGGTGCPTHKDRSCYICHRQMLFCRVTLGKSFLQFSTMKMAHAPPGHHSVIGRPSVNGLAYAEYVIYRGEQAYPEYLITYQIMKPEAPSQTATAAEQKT
Nature of the experiment: TNKS1 Assay 1 (TNKS1 Histone Ribosylation Assay Kit, biotin-labeled NAD+). The following applies: chemiluminescent readout, 384 well. It is filed as biochemical. As for the experimental part: The potency of the compounds according to the invention was assessed by applying an in vitro inhibition assay. The TNKS1 catalyzed NAD^+-dependent ribosylation of a suitable protein substrate was detected using a commercially available biotin/streptavidin binding based assay format [TNKS1 Histone Ribosylation Assay Kit (Biotin-labeled NAD+), Catalog #80579; BPS Bioscience, San Diego, USA]. Here, the incorporation of a biotin-labeled NAD+ during the TNKS1 catalyzed ribosylation reaction was detected with a streptavidin-HRP coupled chemi-luminescent readout. The intensity of the readout signal is proportional to the incorporated NAD^+. Inhibition of TNKS1 leads to a decreased incorporation of NAD^+ and consequently to a lower readout signal intensity. The concentration of a test compound which inhibits the enzyme activity by 50% (corresponds to half of the normed readout signal intensity) is reported as IC50.
The assay was conducted in a 384 well MTP format according to the manufacturer's protocol [bpsbioscience.com/poly-adp-ribose-polymerase/assay-kit/tnks1-histone-ribosylation-assay-kit-biotin-labeled-nad-80579 referencing: Brown, J. A., Marala, R. B. J. Pharmacol. Toxicol. Methods 2002 47:137-41] and using a BMG Pherastar MTP reader [BMG-Labtech, Offenburg, Germany].

[2] abbreviates: HEK293 FOP control reporter cell line, 16 hours incubation, compound dilution series 50 μM to 15 nM.
[3] abbreviates: HEK293 FOP control reporter cells, 16 hours, luciferase, dilution series from 50 μM.

On to `O=C(Nc1ccc(NC(=O)c2ocnc2C(=O)NCCN2CCC(F)(F)CC2)cc1)c1ccc(F)cc1Cl` [Example 218, N^5-{4-[(2-chloro-4-fluorobenzoyl)amino]phenyl}-N^4-[2-(4,4-difluoropiperidin-1-yl)ethyl]-1,3-oxazole-4,5-dicarboxamide], for which 31.5 µM corresponded to half-maximal inhibition in experiment [1] (setting [2]) (IC50).
For the molecule `CNC(=O)c1nc[nH]c1C(=O)Nc1ccc(NC(=O)c2ccncc2Cl)cc1` [Example 6, N^5-{4-[(3-chloroisonicotinoyl)amino]phenyl}-N^4-methyl-1H-imidazole-4,5-dicarboxamide], the IC50 (usually the concentration that gives 50% inhibition) against TNKS1 (Table 1) was 0.05 µM; against TNKS1 (first table), 0.05 µM; in experiment [1] (setting [3]) it was no less than 50 µM.
Regarding `CC(NC(=O)c1ncoc1C(=O)Nc1ccc(NC(=O)c2ccc(F)cc2Cl)cc1)c1ccccc1` (stereo not shown) [Example 8, N^5-{4-[(2-chloro-4-fluorobenzoyl)amino]phenyl}-N^4-(1-phenylethyl)-1,3-oxazole-4,5-dicarboxamide], the IC50 was 2.27 µM on TNKS1 (Table 1), 2.27 µM at TNKS1 (first table) and no less than 50 µM in experiment [1] (setting [3]).
As to `CCC(C)NC(=O)c1ncoc1C(=O)Nc1ccc(NC(=O)c2ccc(F)cc2Cl)cc1` (stereo not shown) [Example 7, N^4-sec-butyl-N^5-{4-[(2-chloro-4-fluorobenzoyl)amino]phenyl}-1,3-oxazole-4,5-dicarboxamide], the IC50 against TNKS1 (Table 1) is 1.3 µM; against TNKS1 (first table), 1.3 µM; in experiment [1] (setting [2]) it was 45 µM; in experiment [1] (setting [3]), 45 µM.
Take `O=C(Nc1ccc(NC(=O)c2nc[nH]c2C(=O)NCCCCN2CCCCC2)cc1)c1ccccc1Cl` [Example 189, N^4-{4-[(2-chlorobenzoyl)amino]phenyl}-N^5-[4-(piperidin-1-yl)butyl]-1H-imidazole-4,5-dicarboxamide]: the midpoint of inhibition in experiment [1] (setting [2]), the IC50, lay at 28 µM.
In experiment [1] (setting [2]), `O=C(Nc1ccc(NC(=O)c2nc[nH]c2C(=O)NCCN2CCCCC2)cc1)c1ccc(F)cc1Br` [Example 216, N^4-{4-[(2-bromo-4-fluorobenzoyl)amino]phenyl}-N^5-[2-(piperidin-1-yl)ethyl]-1H-imidazole-4,5-dicarboxamide] came in with an IC50 of 11 µM.
In experiment [1] (setting [2]), `CNC(=O)c1nc[nH]c1C(=O)Nc1ccc(NC(=O)c2cc(OCCN3CCCCC3)ccc2Cl)cc1` [Example 125, N^5-[4-({2-chloro-5-[2-(piperidin-1-yl)ethoxy]benzoyl}amino)phenyl]-N^4-methyl-1H-imidazole-4,5-dicarboxamide] displayed an IC50 of 15 µM.
Still for that read-out and setting: the value for `O=C(Nc1ccc(NC(=O)c2nc[nH]c2C(=O)NCCCN2CCOCC2)cc1)c1ccccc1Cl` [Example 200, N^4-{4-[(2-chlorobenzoyl)amino]phenyl}-N^5-[3-(morpholin-4-yl)propyl]-1H-imidazole-4,5-dicarboxamide] was 20 µM.
The molecule `CCNC(=O)c1nc[nH]c1C(=O)Nc1ccc(NC(=O)c2ccc(OCC)cc2Cl)cc1` [Example 259, N^5-{4-[(2-chloro-4-ethoxybenzoyl)amino]phenyl}-N^4-ethyl-1H-imidazole-4,5-dicarboxamide] showed an IC50 in experiment [1] (setting [2]) of 33 µM.
`CC(C)CNC(=O)c1[nH]cnc1C(=O)Nc1ccc(NC(=O)c2ccc(F)cc2Cl)cc1` [Example 147, N^4-{4-[(2-chloro-4-fluorobenzoyl)amino]phenyl}-N^5-isobutyl-1H-imidazole-4,5-dicarboxamide] returned an IC50 in experiment [1] (setting [2]) of 6 µM.
On the same count and under the same terms, the value for `CN1CCN(C(C)(C)CNC(=O)c2[nH]cnc2C(=O)Nc2ccc(NC(=O)c3ccc(F)cc3Cl)cc2)CC1` [Example 187, N^4-{4-[(2-chloro-4-fluorobenzoyl)amino]phenyl}-N^5-[2-methyl-2-(4-methylpiperazin-1-yl)propyl]-1H-imidazole-4,5-dicarboxamide] was 28 µM; that for `CC(C)(CN1CCCCC1)NC(=O)c1[nH]cnc1C(=O)Nc1ccc(NC(=O)c2ccccc2Cl)cc1` [Example 171, N^4-{4-[(2-chlorobenzoyl)amino]phenyl}-N^5-[2-methyl-1-(piperidin-1-yl)propan-2-yl]-1H-imidazole-4,5-dicarboxamide] was 6.5 µM.
Same read-out and setting: the figure for `O=C(Nc1ccc(NC(=O)c2nc[nH]c2C(=O)NC2CCOC2)cc1)c1ccc(F)cc1Cl` (stereo not shown) [Example 236, N^4-{4-[(2-chloro-4-fluorobenzoyl)amino]phenyl}-N^5-(tetrahydrofuran-3-yl)-1H-imidazole-4,5-dicarboxamide] is 34 µM; for `CC(C)(C)CNC(=O)c1[nH]cnc1C(=O)Nc1ccc(NC(=O)c2ccccc2Cl)cc1` [Example 148, N^4-{4-[(2-chlorobenzoyl)amino]phenyl}-N^5-(2,2-dimethylpropyl)-1H-imidazole-4,5-dicarboxamide] it is 16 µM; for `CC(C)(CNC(=O)c1[nH]cnc1C(=O)Nc1ccc(NC(=O)c2ccccc2Cl)cc1)N1CCCCC1` [Example 165, N^4-{4-[(2-chlorobenzoyl)amino]phenyl}-N^5-[2-methyl-2-(piperidin-1-yl)propyl]-1H-imidazole-4,5-dicarboxamide] it is 31 µM.
`CNC(=O)c1nc[nH]c1C(=O)Nc1ccc(NC(=O)c2ncccc2Cl)cc1` [Example 247, N^5-(4-{[(3-chloropyridin-2-yl)carbonyl]amino}phenyl)-N^4-methyl-1H-imidazole-4,5-dicarboxamide] returned an IC50 in experiment [1] (setting [2]) of 35 µM.
Turning to `CC1CCN(CCNC(=O)c2nc[nH]c2C(=O)Nc2ccc(NC(=O)c3ccc(F)cc3Cl)cc2)CC1` [Example 126, N^5-{4-[(2-chloro-4-fluorobenzoyl)amino]phenyl}-N^4-[2-(4-methylpiperidin-1-yl)ethyl]-1H-imidazole-4,5-dicarboxamide], the IC50 in experiment [1] (setting [2]) worked out at 27 µM.
In experiment [1] (setting [2]), `O=C(NCCN1CCCCC1)c1nc[nH]c1C(=O)Nc1ccc(NC(=O)c2c(F)cc(F)cc2Cl)cc1` [Example 119, N^5-{4-[(2-chloro-4,6-difluorobenzoyl)amino]phenyl}-N^4-[2-(piperidin-1-yl)ethyl]-1H-imidazole-4,5-dicarboxamide] came in with an IC50 of 20 µM.
Still for that read-out and setting: the value for `CC(C)(CN1CCOCC1)NC(=O)c1[nH]cnc1C(=O)Nc1ccc(NC(=O)c2ccc(F)cc2)cc1` [Example 180, N^4-{4-[(4-fluorobenzoyl)amino]phenyl}-N^5-[2-methyl-1-(morpholin-4-yl)propan-2-yl]-1H-imidazole-4,5-dicarboxamide] was 37 µM; that for `CC1CCCN(CCNC(=O)c2[nH]cnc2C(=O)Nc2ccc(NC(=O)c3ccc(F)cc3Cl)cc2)C1` (stereo not shown) [Example 208, N^4-{4-[(2-chloro-4-fluorobenzoyl)amino]phenyl}-N^5-[2-(3-methylpiperidin-1-yl)ethyl]-1H-imidazole-4,5-dicarboxamide] was 23 µM; that for `CC(C)(CNC(=O)c1[nH]cnc1C(=O)Nc1ccc(NC(=O)c2ccc(F)cc2)cc1)N1CCCCC1` [Example 209, N^4-{4-[(4-fluorobenzoyl)amino]phenyl}-N^5-[2-methyl-2-(piperidin-1-yl)propyl]-1H-imidazole-4,5-dicarboxamide] was 22 µM.

These data come from US9884063B2, “Amido-substituted azole compounds” (Bayer Pharma Aktiengesellschaft, priority 2014, dated 2018).
